Values after ≈ are worked out from the molar mass of the structure shown. Structures can show the parent of a compound that is named as a salt. Where two headings read alike, the source gives them in different places.
What was measured:
physchem = conditions: water, thermodynamic from solid, Total Solubility
[1] = Hygroscopicity, weight gain in 1 week at relative humidity; format: physicochemical; conditions: solid state
[2] = 0.05 M phosphate buffer; for Potency Found (%) At pH 2.5 / Potency Found (%) At pH 7.0: 0.5 mg/mL, ambient
[3] = 1 min

solubility at 1 min (physchem) [mg/mL] | solubility at 1 min (physchem; decitabine or azacitidine free base equivalents) [mg/mL] | Hygroscopicity-% weight gain in 1 week ([1]; 56% RH) [%] | Hygroscopicity-% weight gain in 1 week ([1]; 98% RH) [%] | Potency Found (%) At pH 2.5 ([2]; t = 0.5 hr) [%] | Potency Found (%) At pH 7.0 ([2]; t = 0.5 hr) [%] | Potency Found (%) At pH 2.5 ([2]; t = 24 hr) [%] | Potency Found (%) At pH 7.0 ([2]; t = 24 hr) [%] | Total Solubility [3] [mg/mL] | Compound | solution stability compared with the free base ([2]; pH 7.0 and 2.5)
205 | 137 | 6.05 | 38.11 | 64.56 | 77.47 | 49.94 | 65.79 | 205 | Nc1ncn([C@@H]2O[C@H](CO)C(O)C2O)c(=O)n1 (some centres unmarked) [Compound 19, azacitidine mesylate] | slightly less than the free azacitidine base
14 (≈ 57.3 mM) |  | 1.74 | 5.61 | 73.62 | 86.74 |  | 79.43 | 14 | Nc1ncn([C@@H]2O[C@H](CO)[C@@H](O)[C@H]2O)c(=O)n1 [Compound 2, 5-azacytidine, reference compound] | 
